Experimental data as given in patent US20120214822A1 (ASTRAZENECA AB, priority 2007, published 2012).

Target: human active recombinant p38α-6His tagged (Homo sapiens, UniProt Q16539)
Assay: P38 Alpha Enzyme Assay (AlphaScreen, biotinylated-ATF2 substrate);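 note: 0.5 nM final p38α, reaction started with ATP and run 45 min at 37 °C, phospho-ATF2 read by antibody-based AlphaScreen, background wells quenched with EDTA before ATP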
Format: biochemical
Details: p38 alpha enzyme inhibition; means of replicate determinations; 4 h pre-incubation at 37° C.; SD of assay 0.2-0.3 log units

Sequence of human active recombinant p38α-6His tagged (Q16539 whole entry): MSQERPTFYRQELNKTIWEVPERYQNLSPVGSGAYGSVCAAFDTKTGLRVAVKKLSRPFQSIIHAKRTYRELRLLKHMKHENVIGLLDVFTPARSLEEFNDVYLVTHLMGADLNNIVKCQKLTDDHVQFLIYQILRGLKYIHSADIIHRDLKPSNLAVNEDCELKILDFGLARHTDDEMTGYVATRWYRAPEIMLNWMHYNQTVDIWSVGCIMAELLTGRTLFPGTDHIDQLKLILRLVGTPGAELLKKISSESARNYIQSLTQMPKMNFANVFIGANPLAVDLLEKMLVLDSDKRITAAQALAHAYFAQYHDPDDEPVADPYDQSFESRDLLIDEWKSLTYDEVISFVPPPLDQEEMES

CNCCCOc1ccccc1C(C)(C)Nc1nccn(-c2cc(C(=O)NC3CC3)ccc2C)c1=O [Example 164, N-Cyclopropyl-4-methyl-3-[3-[[1-methyl-1-[2-[3-(methylamino)propoxy]phenyl]ethyl]amino]-2-oxo-1(2H)-pyrazinyl]-benzamide] and CCNCCOc1ccccc1C(C)(C)Nc1nccn(-c2cc(C(=O)NC3CC3)ccc2C)c1=O [Example 198, N-Cyclopropyl-3-[3-[[1-[2-[2-(ethylamino)ethoxy]phenyl]-1-methylethyl]amino]-2-oxo-1(2H)-pyrazinyl]-4-methyl-benzamide] are the same in pIC50: 9.6 for the first, 9.6 for the second.

Going from CNCCOc1ccccc1C1(Nc2nccn(-c3cc(C(=O)NC4CC4)ccc3C)c2=O)CC1 [Example 167, N-Cyclopropyl-4-methyl-3-[3-[[1-[2-[2-(methylamino)ethoxy]phenyl]cyclopropyl]amino]-2-oxo-1(2H)-pyrazinyl]-benzamide] to CCNCCOc1ccccc1C1(Nc2nccn(-c3cc(C(=O)NC4CC4)ccc3C)c2=O)CC1 [Example 168, N-Cyclopropyl-4-methyl-3-[3-[[1-[2-[2-(ethylamino)ethoxy]phenyl]cyclopropyl]amino]-2-oxo-1(2H)-pyrazinyl]-benzamide], the pIC50 rises from 9.7 to 9.9.

Compared with CNCCOc1ccccc1C(C)(C)Nc1nccn(-c2cc(C(=O)NC3CC3)cc(F)c2C)c1=O [Example 169, N-Cyclopropyl-3-fluoro-4-methyl-5-[3-[[1-methyl-1-[2-[2-(methylamino)ethoxy]phenyl]ethyl]amino]-2-oxo-1(2H)-pyrazinyl]-benzamide], Cc1ccc(C(=O)NC2CC2)cc1-n1ccnc(N[C@@H](c2ccccc2)[C@@H](C)CNC(C)(C)CO)c1=O [Example 193, N-Cyclopropyl-3-[3-[[(1R,2S)-3-[(2-hydroxy-1,1-dimethylethyl)amino]-2-methyl-1-phenylpropyl]amino]-2-oxo-1(2H)-pyrazinyl]-4-methyl-benzamide] is lower in pIC50: 9.9 for the first, 9.3 for the second.

Cc1ccc(C(=O)NC2CC2)cc1-n1ccnc(N[C@@H](c2ccccc2)[C@@H](C)CN2CCC(C)CC2)c1=O [Example 170, N-Cyclopropyl-4-methyl-3-[3-[[(1R,2S)-2-methyl-3-(4-methyl-1-piperidinyl)-1-phenylpropyl]amino]-2-oxo-1(2H)-pyrazinyl]-benzamide] and Cc1ccc(C(=O)NC2CC2)cc1-n1ccnc(N[C@@H](c2ccccc2)[C@@H](C)CN2CCC(F)CC2)c1=O [Example 174, N-Cyclopropyl-3-[3-[[(1R,2S)-3-(4-fluoro-1-piperidinyl)-2-methyl-1-phenylpropyl]amino]-2-oxo-1(2H)-pyrazinyl]-4-methyl-benzamide] are the same in pIC50: 8.9 for the first, 8.9 for the second.

Going from Cc1ccc(C(=O)NC2CC2)cc1-n1ccnc(N[C@@H](c2ccccc2)[C@@H](C)CN2CCN(C(C)C)CC2)c1=O [Example 171, N-Cyclopropyl-4-methyl-3-[3-[[(1R,2S)-2-methyl-3-[4-(1-methylethyl)-1-piperazinyl]-1-phenylpropyl]amino]-2-oxo-1(2H)-pyrazinyl]-benzamide] to Cc1ccc(C(=O)NC2CC2)cc1-n1ccnc(N[C@@H](c2ccccc2)[C@@H](C)CN2CCSCC2)c1=O [Example 189, N-Cyclopropyl-4-methyl-3-[3-[[(1R,2S)-2-methyl-1-phenyl-3-(4-thiomorpholinyl)propyl]amino]-2-oxo-1(2H)-pyrazinyl]-benzamide], the pIC50 rises from 8.8 to 9.2.

Compared with Cc1ccc(C(=O)NC2CC2)cc1-n1ccnc(N[C@@H](c2ccccc2)[C@@H](C)CN2CCC(F)(F)CC2)c1=O [Example 175, N-Cyclopropyl-3-[3-[[(1R,2S)-3-(4,4-difluoro-1-piperidinyl)-2-methyl-1-phenylpropyl]amino]-2-oxo-1(2H)-pyrazinyl]-4-methyl-benzamide], Cc1ccc(C(=O)NC2CC2)cc1-n1ccnc(N[C@@H](c2ccccc2)[C@@H](C)CN2CCC3(CC2)CNC3)c1=O [Example 188, N-Cyclopropyl-3-[3-[[(1R,2S)-3-(2,7-diazaspiro[3.5]non-7-yl)-2-methyl-1-phenylpropyl]amino]-2-oxo-1(2H)-pyrazinyl]-4-methyl-benzamide] is higher in pIC50: 9 for the first, 9.2 for the second.

Compared with Cc1ccc(C(=O)NC2CC2)cc1-n1ccnc(N[C@@H](c2ccccc2)[C@@H](C)CN2CCC(N(C)C)CC2)c1=O [Example 176, N-Cyclopropyl-3-[3-[[(1R,2S)-3-[4-(dimethylamino)-1-piperidinyl]-2-methyl-1-phenylpropyl]amino]-2-oxo-1(2H)-pyrazinyl]-4-methyl-benzamide], Cc1ccc(C(=O)NC2CC2)cc1-n1ccnc(N[C@@H](c2ccccc2)[C@@H](C)CN2CCC(C(F)(F)F)CC2)c1=O [Example 177, N-Cyclopropyl-4-methyl-3-[3-[[(1R,2S)-2-methyl-1-phenyl-3-[4-(trifluoromethyl)-1-piperidinyl]propyl]amino]-2-oxo-1(2H)-pyrazinyl]-benzamide] is higher in pIC50: 8.7 for the first, 9 for the second.

Going from Cc1ccc(C(=O)NC2CC2)cc1-n1ccnc(N[C@@H](c2ccccc2)[C@@H](C)CN2CCNC(=O)C2)c1=O [Example 178, N-Cyclopropyl-4-methyl-3-[3-[[(1R,2S)-2-methyl-3-(3-oxo-1-piperazinyl)-1-phenylpropyl]amino]-2-oxo-1(2H)-pyrazinyl]-benzamide] to Cc1ccc(C(=O)NC2CC2)cc1-n1ccnc(N[C@@H](c2ccccc2)[C@@H](C)CN2CC[C@H](O)C2)c1=O [Example 190, N-Cyclopropyl-3-[3-[[(1R,2S)-3-[(3S)-3-hydroxy-1-pyrrolidinyl]-2-methyl-1-phenylpropyl]amino]-2-oxo-1(2H)-pyrazinyl]-4-methyl-benzamide], the pIC50 rises from 8.8 to 9.

First: Cc1ccc(C(=O)NC2CC2)cc1-n1ccnc(N[C@@H](c2ccccc2)[C@@H](C)CN2CCC3(CC2)OCCO3)c1=O [Example 179, N-Cyclopropyl-3-[3-[[(1R,2S)-3-(1,4-dioxa-8-azaspiro[4.5]dec-8-yl)-2-methyl-1-sphenylpropyl]amino]-2-oxo-1(2H)-pyrazinyl]-4-methyl-benzamide]
Second: Cc1ccc(C(=O)NC2CC2)cc1-n1ccnc(N[C@@H](c2ccccc2)[C@@H](C)CN2CCC[C@H](O)C2)c1=O [Example 185, N-Cyclopropyl-3-[3-[[(1R,2S)-3-[(3S)-3-hydroxy-1-piperidinyl]-2-methyl-1-phenylpropyl]amino]-2-oxo-1(2H)-pyrazinyl]-4-methyl-benzamide]
The pIC50 of the first is lower: 8.9 for the first, 9.1 for the second.

Cc1ccc(C(=O)NC2CC2)cc1-n1ccnc(N[C@@H](c2ccccc2)[C@@H](C)CNCC(C)C)c1=O [Example 182, N-Cyclopropyl-4-methyl-3-[3-[[(1R,2S)-2-methyl-3-[(2-methylpropyl)amino]-1-phenylpropyl]amino]-2-oxo-1(2H)-pyrazinyl]-benzamide] and Cc1ccc(C(=O)NC2CC2)cc1-n1ccnc(N[C@@H](c2ccccc2)[C@@H](C)CNC2CC2)c1=O [Example 183, N-Cyclopropyl-3-[3-[[(1R,2S)-3-(cyclopropylamino)-2-methyl-1-phenylpropyl]amino]-2-oxo-1(2H)-pyrazinyl]-4-methyl-benzamide] are the same in pIC50: 9 for the first, 9 for the second.

First: Cc1ccc(C(=O)NC2CC2)cc1-n1ccnc(N[C@@H](c2ccccc2)[C@@H](C)CN2CCC[C@H]2C)c1=O [Example 184, N-Cyclopropyl-4-methyl-3-[3-[[(1R,2S)-2-methyl-3-[(2R)-2-methyl-1-pyrrolidinyl]-1-phenylpropyl]amino]-2-oxo-1(2H)-pyrazinyl]-benzamide]
Second: Cc1ccc(C(=O)NC2CC2)cc1-n1ccnc(N[C@@H](c2ccccc2)[C@@H](C)CN2CCNC[C@H]2C)c1=O [Example 187, N-Cyclopropyl-4-methyl-3-[3-[[(1R,2S)-2-methyl-3-[(2R)-2-methyl-1-piperazinyl]-1-phenylpropyl]amino]-2-oxo-1(2H)-pyrazinyl]-benzamide]
The pIC50 of the first is lower: 8.7 for the first, 9.8 for the second.

Cc1ccc(C(=O)NC2CC2)cc1-n1ccnc(N[C@@H](c2ccccc2)[C@@H](C)CN2CCC[C@@H](O)C2)c1=O [Example 186, N-Cyclopropyl-3-[3-[[(1R,2S)-3-[(3R)-3-hydroxy-1-piperidinyl]-2-methyl-1-phenylpropyl]amino]-2-oxo-1(2H)-pyrazinyl]-4-methyl-benzamide] and Cc1ccc(C(=O)NC2CC2)cc1-n1ccnc(N[C@@H](c2ccccc2)[C@@H](C)CN2CCCC2(C)C)c1=O [Example 197, N-Cyclopropyl-3-[3-[[(1R,2S)-3-(2,2-dimethyl-1-pyrrolidinyl)-2-methyl-1-phenylpropyl]amino]-2-oxo-1(2H)-pyrazinyl]-4-methyl-benzamide] are the same in pIC50: 9 for the first, 9 for the second.

First: Cc1ccc(C(=O)NC2CC2)cc1-n1ccnc(N[C@@H](c2ccccc2)[C@@H](C)CN2CCN(C3CCS(=O)(=O)C3)CC2)c1=O (stereo partly drawn) [Example 191, N-Cyclopropyl-4-methyl-3-[3-[[(1R,2S)-2-methyl-1-phenyl-3-[4-(tetrahydro-1,1-dioxido-3-thienyl)-1-piperazinyl]propyl]amino]-2-oxo-1(2H)-pyrazinyl]-benzamide]
Second: Cc1ccc(C(=O)NC2CC2)cc1-n1ccnc(N[C@@H](c2ccccc2)[C@@H](C)CN2C[C@@H](C)N[C@@H](C)C2)c1=O [Example 194, N-Cyclopropyl-3-[3-[[(1R,2S)-3-[(3R,5S)-3,5-dimethyl-1-piperazinyl]-2-methyl-1-phenylpropyl]amino]-2-oxo-1(2H)-pyrazinyl]-4-methyl-benzamide]
The pIC50 of the first is higher: 9.6 for the first, 9.1 for the second.

Cc1ccc(C(=O)NC2CC2)cc1-n1ccnc(N[C@@H](c2ccccc2)[C@@H](C)CNC2CCNCC2)c1=O [Example 195, N-Cyclopropyl-4-methyl-3-[3-[[(1R,2S)-2-methyl-1-phenyl-3-(4-piperidinylamino)propyl]amino]-2-oxo-1(2H)-pyrazinyl]-benzamide] and Cc1ccc(C(=O)NC2CC2)cc1-n1ccnc(N[C@@H](c2ccccc2)[C@@H](C)CN2CC3CC2CN3C)c1=O (stereo partly drawn) [Example 196, N-Cyclopropyl-4-methyl-3-[3-[[(1R,2S)-2-methyl-3-(5-methyl-2,5-diazabicyclo[2.2.1]hept-2-yl)-1-phenylpropyl]amino]-2-oxo-1(2H)-pyrazinyl]-benzamide] are within 0.2 log units of each other in pIC50: 8.8 for the first, 8.9 for the second.
